What was measured:
[1] = test system: −555/−512 region of the human p27^Kip1 promoter fused to SV40 early promoter; test: Luciferase reporter assay with −555/−512 sequence upstream of SV40 early promoter in U937 cells; assay type: cell-based
From the text: Furthermore, the present inventors generated constructs containing four tandem copies of the specific sequence of the p27^Kip1 promoter fused to a minimal promoter. A double-stranded 52-bp DNA fragment containing a 44-bp sequence corresponding to the −555/−512 region of the human p27^Kip1 promoter and linker sites (indicated by lower case letters below) at both ends was generated from two oligonucleotides. The top strand (5′-aggg[…]-3′) (SEQ ID NO: 5) and the bottom strand (5′-ccct[…]-3′) (SEQ ID NO: 6) were annealed, ligated, blunted and subcloned into the SmaI site upstream of the SV40 early promoter in the PicaGene Promoter Vector 2 (Nippon Gene, Tokyo, Japan) in a forward or reverse orientation to generate PGPV2[−555/−512wild]4 and PGPV2[R−555/−512wiId]4, respectively. Similarly, three types of double-stranded mutated oligonucleotides of the 44-bp sequence were also inserted into the same vector to generate the mutated constructs, PGPV2[−555/−512mSp1-1]4, PGPV2[−555/−512 mSp1-2]4, PGPV2[−555/−512mCTf]4 (see Table 1). Oligonucleotides used in Example 3-6 are shown as follows (SEQ ID NOS: 5, 6, and 18-31).
The present inventors concluded that the region between −555 and −512 relative to the translation start site (−118 and −75 relative to the transcription start site) was sufficient for vitamin D3-induced transcription of the p27^Kip1 gene. Furthermore, both the Sp1-1 site and the CCAAT box in this region were vitamin D3-responsive elements and were required for vitamin D3-induced transcription of the p27^Kip1 gene.

[2] = test system: NF-YA mRNA; test: RT-PCR of NF-YA mRNA in treated U937 cells; assay type: cell-based, human; details: 10^−7 M, time course, primers F1/R and F2/R
Protocol: RT-PCR of NF-YA mRNA was carried out as follows. […] RT-PCR was performed using the RNA PCR Kit Ver. 2.1 (Takara, Tokyo, Japan). The forward (F) and reverse (R) primers for NF-YA-short and -long were […] (Primer F1) (SEQ ID NO: 12), […] (primer F2) (SEQ ID NO: 13), and […] (primer R) (SEQ ID NO: 14). The forward and reverse primers for G3PDH were […] (SEQ ID NO: 15) and […] (SEQ ID NO: 16). One microgram of total RNA was used for RT-PCR. PCR was performed for 25 and 20 cycles to detect NF-YA subunits and G3PDH, respectively. PCR products were subjected to electrophoresis in a 3% agarose gel. The primers for NF-YA were designed to detect two different isoforms simultaneously and were located in regions that were conserved in the two isoforms (Li, X. Y. et al. (1992) J. Biol. Chem., 267, 8984-8990).

[3] = test system: p27^Kip1 mRNA; test: p27^Kip1 mRNA induction in U937 cells (Northern analysis); assay type: cell-based, human; details: peaked between 24 h and 48 h, compared with 0 h
Protocol: Human cervical cancer cell line, C33A, human osteosarcoma cell lines, U2OS and MG63 were maintained in Dulbecco modified Eagle media containing 10% (v/v) fetal bovine serum (FBS) and cultivated in an atmosphere of 5% CO2 at 37° C. Human myelomonocytic cell line U937 (a generous gift from Dr. Y. Honma of the Saitama Cancer Research Institute, Saitama, Japan) was cultivated in Rosweli Park Memorial Institute (RPMI) 1640 media supplemented with 10% (v/v) fatal bovine serum in an atmosphere of 5% CO2.
For this purpose, a series of 5′ deletion constructs of the p27^Kip1 promoter were examined.

[4] = test system: NF-I; test: Gel shift assay, NF-I binding to NF-Iwild probe, nuclear extracts of treated U937 cells; assay type: cell-based, human; details: U937 cells treated 36 h, versus vehicle
Protocol: Two μg of each nuclear extract was incubated with the −555/−512wild probe (lanes 1-3), −534/−512wild probe (lanes 4-6), or NF-Iwild probe (lanes 7-12) to detect Sp1, NF-Y, and NF-I, respectively.
Nuclear extracts of U937 cells were prepared according to the procedure of Andrew and Faller (Andrews, N. C. and Faller, D. V. (1991) Nucleic Acids Res., 19, 2499). […] Gel shift assays were carried out as described by Orita et al. (Orita, T. et al. (1997) J. Biol. Chem., 272, 23216-23223). The reaction mixture for the gel shift assay (25 μl final volume) contained 20 mM Tris-HCl (pH 8.0), 100 mM KCl, 10% glycerol, 1 μg of poly(dl-dC), and 2 μg of nuclear extract. After preincubation for 15 minutes at 23° C., probe DNA (approximately 0.5 ng, 10,000 cpm) was added to the mixture, and the binding reaction was allowed to proceed at 23° C. for 20 min. The resulting product was then resolved by electrophoresis on 4% acrylamide-bisacrylamide (29:1), 0.5×TBE nondenaturing gel at 10 V/cm for 150 min. Competition analyses were performed by mixing the indicated amount of appropriate competitor DNA to the binding reaction prior to addition of nuclear extracts. In supershift experiments, antibodies against Sp1 (sc-59X; Santa Cruz), Sp3 (sc-644X; Santa Cruz), and C/EBP-α (sc-7204X; Santa Cruz) were purchased. The antibodies against NF-YA, -YB, and -YC (IgG fraction) were kindly provided by Drs. […]

With `C=C1/C(=C\C=C2/CCC[C@]3(C)[C@@H]([C@H](C)CCCC(C)(C)O)CC[C@@H]23)C[C@@H](O)C[C@@H]1O` [vitamin D3, 1,25-dihydroxyvitamin D3] the “response to vitamin D3, one copy of the 44 bp fragment” value [1] was “did not respond”, the “stimulatory effect, PGPV2[−555/−512mCTF]4” value ([1]; 40 h, 10^−7 M) was “abolished any stimulatory effect” and the “stimulatory effect, PGPV2[−555/−512 mSp1-1]4” value ([1]; 40 h, 10^−7 M) was “abolished any stimulatory effect”. For the same molecule, the “response to vitamin D3, four copies of the 44 bp fragment (PGPV2[−555/−512wild]4)” value ([1]; 40 h, 10^−7 M, orientation-dependent) was “conferred significant response”, the “luciferase activity, PGPV2[−555/−512 mSp1-2]4” value ([1]; 40 h, 10^−7 M, similar to p27PF and PGPV2[−555/−512wild]4) was “activated” and the “long form of NF-YA mRNA” value [2] was “decreased gradually”. The “p27^Kip1 mRNA induction” value [3] was “approximately 4 fold” and the “DNA binding activity of NF-I” value [4] was “not changed”.

Source: patent US7465541B1, “Vitamin D3-responsive sequences located 5′-upstream of p27/kip 1 gene and methods of screening for pharmaceutical agents using the sequences” (Toshiyuki Sakai, priority 2000, dated 2008)
